Tests used:
luciferase enzyme = target: T1, luciferase enzyme (Photinus pyralis, UniProt P08659); experiment: in vitro luciferase enzyme assay with cell lysates; format: biochemical; conditions: lysate of WNV replicon cell, 30 minutes incubation, up to 10 μM
T1 construct: expressed in transfected cells; host or cells: BHK 26.5 (BHK cells harbouring the WNV subgenomic replicon with the Luc gene); used as cell lysate
Description: In two separate experiments, compounds were either tested with 3, 5, 10 μM or only 10 μM concentrations. The luciferase enzyme cell lysates were incubated with the indicated compounds for 30 minutes before luciferase substrate was added and the luminescence was measured. 1% DMSO was used as controls.
Although the initial HTS and the repeat assays have identified a number of compounds capable of reducing the luciferase activity produced in the WNV replicon BHK 26.5 cell line. It is conceivable that some of these inhibitors could have inhibited the luciferase enzyme itself rather than the WNV viral replication. To rule out this possibility, the identified compounds were tested in an in vitro luciferase enzyme assay by incubating the compounds with cell lysates prepared from the WNV replicon cell. […] The inhibition was not observed when the compounds were added immediately before luminescence reading, but after a 30-minute incubation of […] and the cell lysate, indicating a direct inhibition of the luciferase enzyme by the compounds.

WNV NS3 protein = experiment: Western blot of WNV protein in compound treated replicon cells; format: cell-based, West Nile virus; conditions: 48-hour treatment, up to 10 uM; MPA 2.5 ug/ml
Description: Mycophenolic acid (MPA) was used as positive control in the experiment. 4×10^4 cells were seeded in 24 well plates 24 hours before the various concentrations of compounds were added. After 48 hours of drug treatment, SDS-Sample buffer were added to the wells to lyse the cells. The protein samples were separated on SDS-PAGE and transferred to PVDF membrane. Viral protein was detected by probing with a monoclonal antibody against WNV. The same membrane was stripped and probed for beta-actin with the signals shown at the bottom of the blot.
Although it is reassuring that multiple tests have yielded similar positive results, the ability of the compounds to inhibit WNV replication was further assessed in secondary assays. In the western blot analysis shown in FIG. 5, total cell proteins were prepared from WNV replicon cells treated with the hit compounds and the viral protein NS3 was detected with a monoclonal […] against West Nile virus (15). The same blots were stripped and probed for beta-actin to show equal loading. […] When compared with the IC50 determined for these compounds in the luciferase assay, there was a good correlation between the luciferase reduction and the viral protein reduction.
Total cell lysates from replicon cells were harvested from replicon cells in 1×SDS sample buffer. The lysates were heated at 70° C. for 10 min in the presence of DTT before electrophoresis on a 10% Tris-glycine SDS polyacrylamide gel (Invitrogen) in 1× Tris-glycine buffer. The protein was transferred to PVDF (Invitrogen) membrane. Following the transfer, the membrane was rinsed once with TBS containing 0.5% Tween-20 (TBS-Tween) and blocked in TBS-Tween containing 5% non-fat milk for 1 h. After washing with PBS-Tween, the membrane was incubated with the primary WNV antibody (15) at 1:3000 dilutions for 1 h at 25° C. Prior to incubation with HRP conjugated-mouset IgG secondary antibody (Amersham, Life Science, Piscataway, N.J.) diluted 1:5000, the blot was washed in PBS-Tween. Following the secondary antibody incubation, the blot was washed again and treated with Super Signal Chemiluminescent Reagent (Pierce) according to the manufacturer's protocol and exposed to X-ray film. For controls, the blots were stripped and re-probed with an antibody to beta-actin (Chemicon), which was detected with a goat anti-mouse horseradish peroxidase conjugate.

WNV RNA = experiment: Northern blot of WNV RNA in compound treated replicon cells; format: cell-based, West Nile virus; conditions: 48-hour treatment, compounds 10 μM, MPA 2.5%
Description: FIG. 6 is a picture of a Northern blot gel of compound treated WNV replicon cells. 4×10^4 cells were seeded in 24 well plates. After 24 hours, the cells were treated with DMSO (lanes 2, 3) or the non-specific inhibitors, MPA (lane 1) or the compounds […] (lane 4), 18-B3 (lane 5) or 52-F2 (lane 6). After 48 hours, total RNA were isolated, separated on denaturing agrose gels and transferred to nylon membrane. Total RNA from a non-replicon cell (Huh-7 cell) was loaded in lane 7 as negative control. The membrane was probed with [^32P]-dCTP-labeled WNV NS5 and human beta-actin. The signal was quantified using a BioRad phosphoimager and WNV RNA level was calculated using beta-actin as a reference.
To confirm that the compounds can indeed inhibit WNV RNA replication, the WNV RNA level in the replicon cells treated with compounds by Northern blot analysis. Several hit compounds, 18-B3, 275-F9, 275-D9, 52-F2 and MPA were selected to treat the BHK 26.5 cells at 10 μM. […] The “hit” compounds 18-B3 and 275-F9 reduced WNV RNA by 1.5 and 2 fold, respectively (FIG. 6, lanes 4, 5). 18-B3 is one of the nine compounds that have similar structures while 275-F9 is one from another class of four compounds (Table 3).
Total cellular RNA was extracted by using the RNEASY kit (Qiagen NV, Netherlands). Northern blot analysis was done according to the protocol of Gu et al. 2002 (8). Briefly, 5 μg total RNA was electrophoresed through a 1.0% agarose gel containing 2.2M formaldehyde, transferred to a nylon membrane and immobilized by UV cross-linking (Stratagene, La Jolla, Calif.). After pre-hybridization in 5 ml of QuickHyb (Amersham, Piscataway, N.J. GE Healthcare, Giles, UK), [2P] dCTP-labeled probe made by random primer labeling of a 2.7 kb NS5 DNA fragment and a human beta-actin DNA at 65° C. The membrane was washed twice in 2×SSC/0.1% SDS for 10 min at room temperature and twice in 0.1×SSC/0.1% SDS for 15 min at 68° C. Membranes were exposed to Molecular Imager FX phosphoimager (BioRad, Hercules, Calif.) and the radiographic signals were collected and quantitated.

WNV = WNV yield reduction assay (live virus) on BHK cells; format: cell-based, West Nile virus
Description: The antiviral assay for the 309-F6 compounds was conducted on BHK cells. The virus produced in the presence of 1% DMSO or various concentrations of compounds was tittered on Vero cells. The amount of virus relative to the 1% DMSO control was plotted on the y-axis; the concentration of the compound 309F6 is shown in μM on the x-axis. Data from two independently treated wells (Test 1 and Test 2) are shown.
To measure activity against live WNV, BHK cells were plated in 96-well plates at a concentration of 12,000 cells/well. One day later the cells were infected with WNV for 1 h at an MOI of 0.05. The cells were then washed once and re-fed with fresh DMEM containing dilutions of the test compound. Plates were then incubated at 37° C. for 48 h, the supernatant collected and the WNV produced titered. For virus titration, Vero cells were plated in 96-well plates at 8000 cells/well and incubated overnight. The Vero cell monolayer were then infected for 1 h with various dilutions of the WNV supernatant, overlaid with media containing 0.6% tragacanth (ICN, CA) and incubated at 37° C. for 48 h. The culture media was then aspirated; the plate was rinsed, air-dried, and fixed with 50 μl/well acetone/methanol (50:50). Viral foci were detected for enumeration by immunostaining as described previously (15).

WNV replicon = WNV replicon luciferase assay in BHK 26.5 cells (HTS, re-test, IC50); format: cell-based, West Nile virus
Description: Ten micromolar concentrations of a selected compound were incubated with BHK 26.5 cells expressing luciferase whose activity is dependent upon WNV replicon replication (FIG. 1A). Primary “hits” were defined by the ability to reduce the amount of luciferase enzyme activity by more than 50%, compared to controls.
To quantify and rank the activity of the 23 remaining compound “hits”, a serial dilution of each compound was incubated with WNV replicon cells to determine the concentration that inhibits 50% of the luciferase readout (IC50s). […] A number of compounds had significant effect only at the highest, 10 μM concentration. However, several compounds had IC50s between 2 and 5 (Table 3), which is very reasonable for primary HTS hits from a compound library. Only a few compounds could cause 90% inhibition in the replicon cells at the concentrations tested.
(§1) Replicon-harboring cells were plated 96-well plates at 10,000 cells per well in MEM plus 3% FBS. 24 hours after plating, compounds were added to the wells by a Robotic liquid handler (Biomek NX) to a final concentration of 10 μM and 1% DMSO. For each 96 well plate, A1 to A8 were left open, H1 to H4 contained 1% DMSO, H5-H8 contained Mycophenolic acid (Sigma-Aldrich, St. Louis, Mo.), which was included as positive controls. After 24 hours of treatment, the media were removed and the luciferase activity expressed in the replicon cells was quantified. When cyto-toxicity was measured, duplicate 96 well plates were plated with BHK 26.5 replicon cells. One plate was used for luciferase assay and one plate was used for measuring toxicity using MTT assay.
Luciferase assay was performed by using the STEADY GLO reagent (Promega Corp. Madison, Wis.) according to the manufacturer's recommendation with slight modifications. Briefly, the culture media from the 96 wells were removed by dumping on paper towels.
100 μl of a 1:1 mixture of luciferase regent and culture media were added to the plate. After 5-minute incubation, the luminescence was read on a TOPCOUNT (PerkinElmer, Wellesley, Mass.).

BHK cells = experiment: toxicity (MTT, CC50) in BHK cells parallel to WNV infection assay; format: cell-based; conditions: MTT assay, 40 μM highest concentration used; read-out: Tox CC50
Description: (§2) Several of these original compounds selected from the WNV replicon based screen were evaluated in an antiviral assay against WNV live virus. […] Modifications of this compound would be further investigated
(§3) The toxicity of 101-G7 was also measured by MTT assay and CC50 was calculated. 40 μM is highest concentration used.
(§4) Compound toxicity was determined by MTT assay. For the MTT assay, the cell medium was removed and the monolayers were incubated with 100 μl/well of 0.5 mg/ml MTT for 6 h at 37° C. The MTT solution was then aspirated and 100 μl/well of the 10% SDS (in 0.01N HCl) was added, followed by spectrophotometric quantitation (570 nm) of the insoluble MIT reaction product.

[1] = as above; format: cell-based; conditions: hamster; highest concentration used 40 μM
Description: as §2, §3, §4

BHK 26.5 replicon cells = experiment: MTT toxicity assay on BHK 26.5 replicon cells; format: cell-based
Text: The HTS strategy follows the flowchart outlined in FIG. 2. 35,000 compounds were screened from a chemical library described below, using a cutoff of 50% reduction in luminescence readout as the criteria for further study. Upon completion of the screen, approximately 1100 compounds were selected, making the hit rate of 3%. This is considerably higher than expected, implying many false positive and/or cytotoxic compounds. Nevertheless, the compounds were picked out from the “daughter” plates and re-checked at a single 10 μM concentration. In addition, a duplicate 96 well plates were also plated and the toxicity of the compounds was determined in an MTT assay. Upon completion of these assays, most compounds were disqualified as either false positives or being toxicity to cells. As a result, only a small number of compounds were further analyzed directly from the “mother” plate stock. After IC50 determination and secondary assay to rule out luciferase inhibitors, 23 “hits” were identified.
as §1, §4

T1 sequence (P08659 whole entry): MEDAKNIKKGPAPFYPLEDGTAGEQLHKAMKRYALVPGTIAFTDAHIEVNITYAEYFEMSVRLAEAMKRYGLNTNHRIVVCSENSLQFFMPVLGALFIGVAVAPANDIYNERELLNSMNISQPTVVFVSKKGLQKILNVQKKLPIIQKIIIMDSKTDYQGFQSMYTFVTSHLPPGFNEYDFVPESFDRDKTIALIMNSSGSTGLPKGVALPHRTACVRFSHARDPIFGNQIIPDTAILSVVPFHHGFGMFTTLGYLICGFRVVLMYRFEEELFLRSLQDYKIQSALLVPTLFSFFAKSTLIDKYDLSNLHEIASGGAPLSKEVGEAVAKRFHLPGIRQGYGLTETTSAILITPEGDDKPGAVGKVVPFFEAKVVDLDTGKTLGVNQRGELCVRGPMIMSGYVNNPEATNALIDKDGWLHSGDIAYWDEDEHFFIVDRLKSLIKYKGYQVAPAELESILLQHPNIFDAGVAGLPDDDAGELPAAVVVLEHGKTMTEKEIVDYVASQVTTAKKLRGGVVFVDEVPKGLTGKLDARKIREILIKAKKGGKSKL

COc1c(C)c2c(c(O)c1C/C=C(\C)CCC(=O)O)C(=O)OC2 [MPA, Mycophenolic acid, reference compound]
luciferase enzyme activity in cell lysate (luciferase enzyme): did not reduce the luciferase activity | WNV NS3 protein level (western blot) (WNV NS3 protein): reduced WNV NS3 protein level | WNV RNA reduction (WNV RNA): more than five fold

Cc1ccc(-c2csc(Nc3ccc(S(=O)(=O)Nc4cc(C)on4)cc3)n2)cc1 [Compound 101-G7, N-(5-Methyl-isoxazol-3-yl)-4-(4-p-tolyl-thiazol-2-ylamino)-benzenesulfonamide]
IC50 (WNV; West Nile virus, BHK, read-out: IC50 in WNV infection assay, re-synthesized, three independent experiments in duplicate): 3 to 15 µM | activity in the WNV infection assay (WNV; live WNV): retained activity | IC50 (WNV replicon; West Nile virus, 24 h): 5 µM | Fold decrease (HTS) (WNV replicon; luciferase activity, 10 μM compound, 24 hours, BHK 26.5 cells): 6 Fold | Fold decrease (Re-test) (WNV replicon; luciferase activity, re-checked at a single 10 μM concentration): 2 Fold | reducing the luciferase activity of the WNV replicon cell (WNV replicon; re-synthesized compound, 24 and 48 hour incubation): good activity | CC50 (BHK cells): > 40 µM | CC50 [1]: > 40 µM | Toxicity (uM)* (BHK 26.5 replicon cells; MTT assay): >10 µM | toxicity in replicon assays (BHK 26.5 replicon cells; re-synthesized compound, MTT): about 80 μM

— US20100075993A1, “SMALL MOLECULE INHIBITORS AGAINST WEST NILE VIRUS REPLICATION” (DREXEL UNIVERSITY, priority 2005, published 2010)
